Source: patent publication US8309546B2, “Morpholinopurine derivatives” (Daiichi Sankyo Company, Limited, priority 2008, dated 2012)
“And” between values parts separate entries of the source, which are not always exact repeats. Equal entries are not always repeated.

Tests used:
[1] = tested on: human endometrial cancer cell strain AN3CA; assay: Cell growth inhibition test (MTT), AN3CA; format: cell-based; conditions: AN3-CA, 72 h, 3 days culture, read-out: concentration exhibiting anti-cell effect (GI50)
Experimental: (§1) After a cultured cancer cell strain was treated with a test compound for a predetermined period, a cell growth inhibition test was performed by measuring the living cell count by the 3-(4,5-dimethylthiazol-2-yl)-2,5-diphenyltetrazoliumbromide (MTT) method.
(§2) Human endometrial cancer cell strain AN3CA, human ovary cancer cell strain IGROV1, and human colon cancer cell strain HT29 were seeded in a 96-well plate at 5000, 1000, and 5000 cells, respectively, per well. On the following day of seeding, a test compound having a predetermined concentration was added and the culture was continued at 37° C. in 5% CO2 for 3 days. On the final day of culture, an MTT reaction solution was added and the resulting mixture was reacted for 4 hours to form formazan by dehydrogenases contained in living cells. Subsequently, the culture broth was removed, DMSO was added to solubilize formazan, and the amount of produced formazan was determined by measuring absorbance at 540 nm using a microplate reader.
(§3) Since correlations of the amount of produced formazan and the living cell count had been confirmed, the cell growth rate was calculated by the following formula. Cell growth rate (T/C %) after addition of test compound=100×[(B−C)/(A−C)] A: Absorbance of well not containing test compound (final culture day) B: Absorbance of well containing test compound (final culture day) C: Absorbance of well immediately before addition of test compound (following day of cell seeding)
(§4) Furthermore, the cell growth rate at each concentration of serially diluted test compound solutions was obtained, and the concentration of the test compound resulting in a 50% growth rate was obtained as the GI50 value from two concentrations including 50% therebetween and the growth rates were selected.

PI3Kα = PI3Kα (Homo sapiens, UniProt P42336); assay: PI3K kinase activity inhibition assay; format: biochemical; conditions: Kinase-Glo Plus ATP detection, read-out: IC50 against PI3K
Chain of PI3Kα (P42336 whole entry, species assumed): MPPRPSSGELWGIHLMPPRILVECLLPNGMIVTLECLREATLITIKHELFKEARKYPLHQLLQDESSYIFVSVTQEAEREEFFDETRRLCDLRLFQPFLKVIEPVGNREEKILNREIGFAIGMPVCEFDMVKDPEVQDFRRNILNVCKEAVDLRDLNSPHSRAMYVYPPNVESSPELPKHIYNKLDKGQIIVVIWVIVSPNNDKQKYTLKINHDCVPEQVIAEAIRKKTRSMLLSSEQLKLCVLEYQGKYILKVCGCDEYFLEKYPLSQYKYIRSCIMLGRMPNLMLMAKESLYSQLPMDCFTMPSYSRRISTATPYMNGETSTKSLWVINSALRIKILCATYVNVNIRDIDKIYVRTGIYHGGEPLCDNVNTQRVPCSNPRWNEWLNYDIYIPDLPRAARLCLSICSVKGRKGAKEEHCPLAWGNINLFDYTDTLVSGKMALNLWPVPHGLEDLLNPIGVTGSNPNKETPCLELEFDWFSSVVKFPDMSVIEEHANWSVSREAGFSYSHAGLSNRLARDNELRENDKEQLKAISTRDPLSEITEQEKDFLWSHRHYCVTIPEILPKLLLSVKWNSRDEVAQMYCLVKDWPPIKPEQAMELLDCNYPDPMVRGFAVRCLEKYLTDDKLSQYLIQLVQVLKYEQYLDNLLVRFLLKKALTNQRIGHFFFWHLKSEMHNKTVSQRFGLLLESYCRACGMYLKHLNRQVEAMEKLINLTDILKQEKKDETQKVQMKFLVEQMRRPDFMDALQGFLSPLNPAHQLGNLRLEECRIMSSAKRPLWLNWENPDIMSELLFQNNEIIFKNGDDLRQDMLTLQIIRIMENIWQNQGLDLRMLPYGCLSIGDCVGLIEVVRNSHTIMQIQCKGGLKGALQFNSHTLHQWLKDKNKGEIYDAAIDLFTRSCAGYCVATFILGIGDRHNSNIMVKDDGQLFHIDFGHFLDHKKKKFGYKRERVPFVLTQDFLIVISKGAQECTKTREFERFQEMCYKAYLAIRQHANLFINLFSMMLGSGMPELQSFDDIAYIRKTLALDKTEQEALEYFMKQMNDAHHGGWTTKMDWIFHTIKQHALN
Chain of PI3Kα (P27986 whole entry partner, species assumed): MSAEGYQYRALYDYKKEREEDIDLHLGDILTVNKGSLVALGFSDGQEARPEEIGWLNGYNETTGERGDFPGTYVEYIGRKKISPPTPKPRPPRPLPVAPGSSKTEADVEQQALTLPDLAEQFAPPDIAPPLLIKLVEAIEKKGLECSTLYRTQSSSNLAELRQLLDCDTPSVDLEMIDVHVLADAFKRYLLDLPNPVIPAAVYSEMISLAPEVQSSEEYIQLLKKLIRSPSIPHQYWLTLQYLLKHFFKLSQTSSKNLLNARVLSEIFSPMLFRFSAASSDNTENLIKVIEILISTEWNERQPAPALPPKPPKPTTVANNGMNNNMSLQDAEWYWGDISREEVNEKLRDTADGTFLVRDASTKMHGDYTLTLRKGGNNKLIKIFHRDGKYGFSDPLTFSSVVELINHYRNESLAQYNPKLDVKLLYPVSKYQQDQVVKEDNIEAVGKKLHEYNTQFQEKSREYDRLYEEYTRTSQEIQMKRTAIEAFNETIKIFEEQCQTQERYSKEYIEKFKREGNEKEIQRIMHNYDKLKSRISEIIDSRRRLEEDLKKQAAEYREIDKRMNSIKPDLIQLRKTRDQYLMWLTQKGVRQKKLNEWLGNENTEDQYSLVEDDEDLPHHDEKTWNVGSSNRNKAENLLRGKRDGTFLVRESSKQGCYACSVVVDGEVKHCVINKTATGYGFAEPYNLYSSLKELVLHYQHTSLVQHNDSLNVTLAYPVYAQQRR
Experimental: PI3Kα kinase activity was determined in the presence and absence of a test compound. The test compound was dissolved in DMSO and diluted serially with an ATP solution (30 μm ATP, 50 mM HEPES, pH 7.4, 50 mM NaCl, 0.05% CHAPS, 10 mM MgCl2, and 5 mM dithiothreitol [DTT]). First, 7 μl each of the serially diluted test compound solutions was added to each well of a black 384-well plate. Subsequently, 7 μl of a phosphatidylinositol 4,5-bisphosphate (PIP2) solution (45 μm PIP2, 50 mM HEPES, pH 7.4, 50 mM NaCl, 0.05% CHAPS, 10 mM MgCl2, and 5 mM DTT) was added to each well of the 384-well plate. Finally, 7 μl of a solution containing PI3Kα (50 nM PI3Kα, 50 mM HEPES, pH 7.4, 50 mM NaCl, 0.05% CHAPS, 10 mM MgCl2, and 5 mM DTT) was added to each well of the 384-well plate to initiate a reaction. The mixture was reacted at room temperature for 2 hours and then 21 μl of the Kinase-Glo Plusreagent (Promega) was, added to each well of the 384-well plate to terminate the reaction. After the termination of the reaction, the solution was left standing for 15 minutes and then luminescence was measured with ARVO (PerkinElmer Co., Ltd.) to detect ATP remaining in the reaction solution.
The amount of ATP consumed in the reaction was obtained for each well and used as an indicator of PI3Kαkinase activity. The PI3Kα kinase activity in wells not containing the test compound was calculated by the following formula (1). Furthermore, the PI3Kα kinase activity in wells containing the test compound was calculated by the following formula (2). The PI3Kα inhibitory activity (%) of the test compound was calculated by the following formula (3). PI3Kα kinase activity in wells not containing the test compound=B−C (1) PI3Kα kinase activity in wells containing the test compound=B−P (2) PI3Kα inhibitory activity (%) of test compound=100−100×[(B−P)/(B−C)] (3) B: Measured value in wells not containing PI3Kα or the test compound C: Measured value in wells containing PI3Kα and not containing the test compound P: Measured value in wells containing PI3Kα and the test compound
Furthermore, an optimal curve was calculated with Graph Pad Prism 4 using concentrations of the serially diluted test compound solutions and PI3Kα inhibitory activity (%) at each concentration to obtain the concentration showing 50% inhibition as the IC50 value of PI3Kα inhibitory activity.

[2] = target: T1, human mTOR (His-tagged mTOR (1362C)) (Homo sapiens, UniProt P42345); assay: mTOR kinase activity inhibition assay; format: biochemical; conditions: HTRF, read-out: IC50 against mTOR
T1 construct: the 1362 to 2549 amino acid portion on the C terminus side of human mTOR; His tag (N); made in house
T1 sequence (P42345 1362-2549): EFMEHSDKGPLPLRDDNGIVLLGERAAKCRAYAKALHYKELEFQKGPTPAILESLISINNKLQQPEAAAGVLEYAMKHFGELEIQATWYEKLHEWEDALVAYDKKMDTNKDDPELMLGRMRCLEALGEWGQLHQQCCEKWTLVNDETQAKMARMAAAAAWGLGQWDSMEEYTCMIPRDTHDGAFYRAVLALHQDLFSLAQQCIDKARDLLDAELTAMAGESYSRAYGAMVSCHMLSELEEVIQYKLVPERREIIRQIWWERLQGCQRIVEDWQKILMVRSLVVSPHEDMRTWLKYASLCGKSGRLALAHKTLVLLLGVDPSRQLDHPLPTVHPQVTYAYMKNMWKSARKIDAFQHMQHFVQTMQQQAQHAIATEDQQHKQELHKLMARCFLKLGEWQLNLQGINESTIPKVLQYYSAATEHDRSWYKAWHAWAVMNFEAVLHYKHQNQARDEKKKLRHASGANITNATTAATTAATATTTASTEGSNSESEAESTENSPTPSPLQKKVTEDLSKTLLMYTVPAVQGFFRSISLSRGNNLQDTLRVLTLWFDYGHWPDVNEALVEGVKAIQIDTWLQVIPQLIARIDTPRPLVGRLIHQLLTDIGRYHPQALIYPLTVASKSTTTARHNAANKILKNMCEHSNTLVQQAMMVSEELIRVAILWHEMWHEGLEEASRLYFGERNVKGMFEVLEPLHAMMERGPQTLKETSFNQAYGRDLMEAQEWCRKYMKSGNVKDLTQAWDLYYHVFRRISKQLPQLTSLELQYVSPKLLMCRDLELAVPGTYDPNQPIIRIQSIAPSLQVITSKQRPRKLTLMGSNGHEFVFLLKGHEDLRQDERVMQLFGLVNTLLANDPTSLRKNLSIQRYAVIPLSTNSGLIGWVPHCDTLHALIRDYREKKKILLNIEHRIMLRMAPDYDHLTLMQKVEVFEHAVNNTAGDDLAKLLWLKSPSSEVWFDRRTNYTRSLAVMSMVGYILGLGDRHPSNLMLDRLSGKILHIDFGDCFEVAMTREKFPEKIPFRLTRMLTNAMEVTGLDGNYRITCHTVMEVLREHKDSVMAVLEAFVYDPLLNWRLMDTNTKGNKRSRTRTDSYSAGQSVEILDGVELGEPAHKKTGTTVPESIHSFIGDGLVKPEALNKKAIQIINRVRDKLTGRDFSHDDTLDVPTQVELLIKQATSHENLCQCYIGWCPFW
Experimental: The mTOR kinase activity was determined in the presence and absence of a test compound. A substrate peptide is phosphorylated by mTOR kinase activity. A complex of streptavidin-XL665 and anti-phosphorylated S6K (Thr389) antibody-anti-mouse IgG-cryptate binds to this phosphorylated peptide. At this time, irradiation of excitation light induces transfer of fluorescence resonance energy from the excited cryptate to XL665, emitting fluorescence at 665 nm. Utilizing this principle, mTOR kinase activity was detected. When the mTOR inhibitor is present, phosphorylation of a substrate peptide is inhibited, and the biding of the above-mentioned complex to the substrate peptide is inhibited.
A His tag was introduced into the N terminus end of the 1362 to 2549 amino acid portion on the C terminus side of human mTOR, and a cell line was prepared, so that His-tagged mTOR should be constantly expressed in a HEK293 cell. A cell lysate was prepared from this HEK293 cell which constantly expressed His-tagged mTOR (1362C), and a crude product of His-tagged mTOR (1362C) was obtained by a usual method utilizing His tag.
Subsequently, an mTOR enzyme solution was prepared which contained the above-mentioned His-tagged mTOR (1362C) enzyme and 8 μg/ml biotinylated peptide (Biotin-Ahx-[…]-amide [Sigma]), as well as 50 mM HEPES (pH 7.5), 20 mM MnCl2, 1 mg/ml BSA, a suitable amount of protease inhibitor cocktail (Complete EDTA free, Roche Ltd.), 100 ng/ml calyculin A, and 4 μg/ml cantharidin as other components.
The test compound was dissolved in dimethyl sulfoxide (DMSO) and serially diluted with 20 μm ATP solution (50 mM HEPES (pH 7.5), 20 μM ATP) to obtain concentrations required for the assay. 5 μl of this compound solution was added to each well of a 384-well small volume white plate manufactured by Greiner Bio-One Co., Ltd.
5 μl of the mTOR enzyme solution was added to the above-mentioned well containing the test compound and the resulting mixture was left standing for 3 hours room temperature to proceed an enzymatic reaction.
The same procedure was performed using a solution obtained by dissolving DMSO in 20 μM ATP solution as a positive control and a solution obtained by dissolving DMSO in 50 mM HEPES buffer (pH 7.5) as a negative control.
After the enzymatic reaction, 5 μl each of an europium solution (a solution obtained by dissolving anti-mouse IgG-cryptate [SCETI Medical Labo K.K.] and anti-phosphorylation S6K [Thr389] antibody [Cell Signaling Technology Inc.] in 50 mM HEPES [pH 7.5], 100 mM EDTA, and 1.5 mg/ml BSA) and an XL665 solution (a solution obtained by dissolving Streptavidin-XL 665 [SCETI Medical Labo K.K.] in 50 mM HEPES [pH 7.5], 100 mM EDTA, 0.8 M KF, and 1.5 mg/ml BSA) were added in this order and mixed and the resulting mixture was left standing overnight at 4° C. On the following day, the mixture was returned to room temperature and then irradiated with 337-nm excitation light and fluorescence at 620 and 665 nm was measured with RUBYstar (BMG LABTECH JAPAN Ltd.).
mTOR inhibitory activity (%) was calculated using the ratio calculated from the measured values as an indicator of enzyme activity. Here, the ratio was calculated by the following formula (1). Ratio=10,000×fluorescence at 665 nm/fluorescence at 620 nm (1)
mTOR enzyme inhibitory activity (%) was calculated by the following formula (2). mTOR enzyme inhibitory activity (%)=100×[(P−S)/(P−N)] (2) P: Ratio in positive control well N: Ratio in negative control well S: Ratio in well containing the test compound
Furthermore, an optimal curve was created using the concentrations of the serially diluted test compound solutions and mTOR enzyme inhibitory activity (%) at each concentration to obtain the concentration showing 50% inhibition as the IC50 value of mTOR enzyme inhibitory activity.

[3] = tested on: human colon cancer cell strain HT29; assay: Cell growth inhibition test (MTT), HT29; format: cell-based; conditions: HT-29, 72 h, HT29, 3 days culture, read-out: concentration exhibiting anti-cell effect (GI50)
Experimental: as §1, §2, §3, §4

[4] = tested on: human ovary cancer cell strain IGROV1; assay: Cell growth inhibition test (MTT), IGROV1; format: cell-based; conditions: IGROV-1, 72 h, IGROV1, 3 days culture, read-out: concentration exhibiting anti-cell effect (GI50)
Experimental: as §1, §2, §3, §4

## CC(C)Cn1c(N2C[C@H](C)NC[C@H]2C)nc2c(N3CCOCC3)nc(-c3cnc(N)nc3)nc21 (relative stereo) [Example 50, 5-[8-(trans-2,5-Dimethylpiperazin-1-yl)-9-isobutyl-6-morpholin-4-yl-9H-purin-2-yl]pyrimidin-2-amine]
[1]
  GI50: ≤ 5000 nM
PI3Kα
  IC50: 10 to 20 nM
[2]
  IC50: 30 to 100 nM
[3]
  GI50: ≤ 5000 nM
[4]
  GI50: ≤ 5000 nM

## CNc1ncc(-c2nc(N3CCOCC3)c3nc(N4CCN(S(C)(=O)=O)CC4)n(CC4CC4)c3n2)cn1 [Example 4, 5-{9-(Cyclopropylmethyl)-8-[4-(methylsulfonyl)piperazin-1-yl]-6-morpholin-4-yl-9H-purin-2-yl}-N-methylpyrimidin-2-amine]
[1]
  GI50: ≤ 5000 nM
PI3Kα
  IC50: 10 to 20 nM
[2]
  IC50: 30 to 100 nM
[3]
  GI50: ≤ 5000 nM
[4]
  GI50: ≤ 5000 nM

## CS(=O)(=O)N1CCN(c2nc3c(N4CCOCC4)nc(-c4cnc(N)nc4)nc3n2CC2CCOC2)CC1 (stereo not drawn) [Example 5, 5-{8-[4-(Methylsulfonyl)piperazin-1-yl]-6-morpholin-4′-yl-9-(tetrahydrofuran-3-ylmethyl)-9H-purin-2-yl}pyrimidin-2-amine]
[1]
  GI50: ≤ 5000 nM
PI3Kα
  IC50: 10 to 20 nM and 20 to 50 nM
[2]
  IC50: 10 to 30 nM
[3]
  GI50: ≤ 5000 nM
[4]
  GI50: ≤ 5000 nM

## CS(=O)(=O)N1CCN(c2nc3c(N4CCOCC4)nc(-c4cnc(N)nc4C(F)(F)F)nc3n2CC2CC2)CC1 [Example 7, 5-{9-(Cyclopropylmethyl)-8-[4-(methylsulfonyl)piperazin-1-yl]-6-morpholin-4-yl-9H-purin-2-yl}-4-(trifluoromethyl)pyrimidin-2-amine]
[1]
  GI50: ≤ 5000 nM
PI3Kα
  IC50: < 10 nM
[2]
  IC50: 100 to 500 nM
[3]
  GI50: ≤ 5000 nM
[4]
  GI50: ≤ 5000 nM

## CC(=O)N1CCN(c2nc3c(N4CCOCC4)nc(-c4cnc(N)nc4)nc3n2CC(F)(F)F)CC1 [Example 9, 5-[8-(4-Acetylpiperazin-1-yl)-6-morpholin-4-yl-9-(2,2,2-trifluoroethyl)-9H-purin-2-yl]pyrimidin-2-amine]
[1]
  GI50: ≤ 5000 nM
PI3Kα
  IC50: 10 to 20 nM
[2]
  IC50: < 10 nM
[3]
  GI50: ≤ 5000 nM
[4]
  GI50: ≤ 5000 nM

## CN1CCN(c2nc3c(N4CCOCC4)nc(-c4cnc(N)nc4)nc3n2CC(F)(F)F)CC1 [Example 13, 5-[8-(4-Methylpiperazin-1-yl)-6-morpholin-4-yl-9-(2,2,2-trifluoroethyl)-9H-purin-2-yl]pyrimidin-2-amine]
[1]
  GI50: ≤ 5000 nM
PI3Kα
  IC50: < 10 nM
[2]
  IC50: 10 to 30 nM
[3]
  GI50: ≤ 5000 nM
[4]
  GI50: ≤ 5000 nM

## Cc1nc(N)ncc1-c1nc(N2CCOCC2)c2nc(N3C[C@@H](C)N[C@@H](C)C3)n(CC3CC3)c2n1 [Example 15, 5-[9-(Cyclopropylmethyl)-8-(cis-3,5-dimethylpiperazin-1-yl)-6-morpholin-4-yl-9H-purin-2-yl]-4-methylpyrimidin-2-amine]
[1]
  GI50: ≤ 5000 nM
PI3Kα
  IC50: 20 to 50 nM
[2]
  IC50: 100 to 500 nM
[3]
  GI50: ≤ 5000 nM
[4]
  GI50: ≤ 5000 nM

## CNc1ncc(-c2nc(N3CCOCC3)c3nc(N4C[C@@H](C)N[C@@H](C)C4)n(CC4CC4)c3n2)cn1 [Example 16, 5-{9-(Cyclopropylmethyl)-8-(cis-3,5-dimethylpiperazin-1-yl)-6-morpholin-4-yl-9H-purin-2-yl}-N-methylpyrimidin-2-amine]
[1]
  GI50: ≤ 5000 nM
PI3Kα
  IC50: 20 to 50 nM
[2]
  IC50: 30 to 100 nM
[3]
  GI50: ≤ 5000 nM
[4]
  GI50: ≤ 5000 nM

## Cc1nc(N(C)C)ncc1-c1nc(N2CCOCC2)c2nc(N3CCN(S(C)(=O)=O)CC3)n(CC3CC3)c2n1 [Example 44, 5-{9-(Cyclopropylmethyl)-8-[4-(methylsulfonyl)piperazin-1-yl]-6-morpholin-4-yl-9H-purin-2-yl}-N,N,4-trimethylpyrimidin-2-amine]
[2]
  IC50: ≥ 500 nM

## Cc1nc(N)ncc1-c1nc(N2CCOCC2)c2nc(N3CCC(C(N)=O)CC3)n(CC3CC3)c2n1 [Example 47, 1-[2-(2-Amino-4-methylpyrimidin-5-yl)-9-(cyclopropylmethyl)-6-morpholin-4-yl-9H-purin-8-yl]piperidine-4-carboxamide methanesulfonate]
PI3Kα
  IC50: 10 to 20 nM
